# Test results reported in ChEMBL document CHEMBL5137025, “Tuberculosis Drug Discovery: Challenges and New Horizons” (J Med Chem, 2022).
# Test system: Mycobacterium tuberculosis variant bovis
# Assay: Antibacterial activity against Mycobacterium bovis BCG assessed as inhibition of bacterial growth incubated for 4 to 7 days
# Format: functional
# Details: time 4-7 day
smiles,measurement,value
Nc1nc(N)c(N=O)c(OCC2CCCCC2)n1,MIC99,1.6 µM
